Results on two compounds are retold here after US5763635A, “Tetrahydronaphthalene derivatives substituted in the 8 position with alkyhidene groups having retinoid and/or retinoid antagonist-like biological activity” (ALLERGAN, priority 1996, dated 1998).

The experiment relates to ornithine decarboxylase (ODC). The experiment can be described thus: Inhibition of TPA induction of ornithine decarboxylase (ODC assay). The experiment is classed as biochemical. The text has this:
A classic measure of retinoic acid activity involves measuring the effects of retinoic acid on ornithine decarboxylase. The original work on the correlation between retinoic acid and decrease in cell proliferation was done by Verma & Boutwell, Cancer Research, 1977, 37,2196-2201. That reference discloses that ornithine decarboxylase (ODC) activity increased precedent to polyamine biosynthesis. It has been established elsewhere that increases in polyamine synthesis can be correlated or associated with cellular proliferation. Thus, if ODC activity could be inhibited, cell hyperproliferation could be modulated. Although all cases for ODC activity increases are unknown, it is known that 12-O-tetradecanoylphorbol-13-acetate (TPA) induces ODC activity. Retinoic acid inhibits this induction of ODC activity by TPA. […] Activity of exemplary compounds of the present invention in the above-described ODC assay is disclosed in Table 1 which provides the IC60 concentration for the respective exemplary compound. ("IC60 " is that concentration of the test compound which causes 60% inhibition in the ODC assay. By analogy, "IC80, for example, is that concentration of the test compound which causes 80% inhibition in the ODC assay.)

Take `CCOC(=O)c1ccc(N=Nc2ccc3c(c2)/C(=N/OC)CCC3(C)C)cc1` [Compound D3, Ethyl 4-[(8(7H)-anti-(O-methyl oxime)-5,5-dimethyl-5,6-dihydronaphthalen-2-yl)azo]benzoate]: for the setting “concentration causing 60% inhibition in the ODC assay (TPA-induced)”, the IC60 is 8.4 nmols.
Regarding `CC1(C)CC=C(c2cccs2)c2ccc(C(=O)C=Cc3ccc(C(=O)O)cc3)cc21` [Compound D34, 4-[3-oxo-3-(7,8-dihydro-5-(2-thienyl)-8,8-dimethyl-2-naphthalenyl)-1-propenyl]-benzoic acid], the IC80 (concentration causing 80% inhibition in the ODC assay (TPA-induced), marked (IC80) in the IC60 column) is 4.3 nmols.
